# Read-outs that look alike come from different tables or passages of the source.
# Experiments:
# Assay in all cases: biochemical
# Type in all cases: binding
# 468 kinases [1] = target: 468 kinases (Homo sapiens, UniProt O00141); details: SGK; read-out: % Inhibition @ 100 nM
# 468 kinases [2] = target: 468 kinases (Homo sapiens, UniProt O14757); details: CHEK1; read-out: % Inhibition @ 100 nM
# 468 kinases [3] = target: 468 kinases (Homo sapiens, UniProt O14920); details: IKK-beta; read-out: % Inhibition @ 100 nM
# 468 kinases [4] = target: 468 kinases (Homo sapiens, UniProt O15197); details: EPHB6; read-out: % Inhibition @ 100 nM
# 468 kinases [5] = target: 468 kinases (Homo sapiens, UniProt O75747); details: PIK3C2G; read-out: % Inhibition @ 100 nM
# 468 kinases [6] = target: 468 kinases (Homo sapiens, UniProt O75914); details: PAK3; read-out: % Inhibition @ 100 nM
# 468 kinases [7] = target: 468 kinases (Homo sapiens, UniProt O95835); details: LATS1; read-out: % Inhibition @ 100 nM
# 468 kinases [8] = target: 468 kinases (Homo sapiens, UniProt P06241); details: FYN; read-out: % Inhibition @ 100 nM
# 468 kinases [9] = target: 468 kinases (Homo sapiens, UniProt P15056); details: BRAF; read-out: % Inhibition @ 100 nM
# 468 kinases [10] = target: 468 kinases (Homo sapiens, UniProt P24723); details: PRKCH; read-out: % Inhibition @ 100 nM
# 468 kinases [11] = target: 468 kinases (Homo sapiens, UniProt P42336, E545K); details: PIK3CA(E545K); read-out: % Inhibition @ 100 nM
# 468 kinases [12] = target: 468 kinases (Homo sapiens, UniProt P43405); details: SYK; read-out: % Inhibition @ 100 nM
# 468 kinases [13] = target: 468 kinases (Homo sapiens, UniProt P50613); details: CDK7; read-out: % Inhibition @ 100 nM
# 468 kinases [14] = target: 468 kinases (Homo sapiens, UniProt P78362); details: SRPK2; read-out: % Inhibition @ 100 nM
# 468 kinases [15] = target: 468 kinases (Homo sapiens, UniProt Q00526); details: CDK3; read-out: % Inhibition @ 100 nM
# 468 kinases [16] = target: 468 kinases (Homo sapiens, UniProt Q13237); details: PRKG2; read-out: % Inhibition @ 100 nM
# 468 kinases [17] = target: 468 kinases (Homo sapiens, UniProt Q14164); details: IKK-epsilon; read-out: % Inhibition @ 100 nM
# 468 kinases [18] = target: 468 kinases (Homo sapiens, UniProt Q15375); details: EPHA7; read-out: % Inhibition @ 100 nM
# 468 kinases [19] = target: 468 kinases (Homo sapiens, UniProt Q15418); details: read-out: % Inhibition @ 100 nM
# 468 kinases [20] = target: 468 kinases (Homo sapiens, UniProt Q59H18); details: TNNI3K; read-out: % Inhibition @ 100 nM
# 468 kinases [21] = target: 468 kinases (Homo sapiens, UniProt Q5S007); details: LRRK2; read-out: % Inhibition @ 100 nM
# 468 kinases [22] = target: 468 kinases (Homo sapiens, UniProt Q5S007, G2019S); details: LRRK2(G2019S); read-out: % Inhibition @ 100 nM
# 468 kinases [23] = target: 468 kinases (Homo sapiens, UniProt Q6PHR2); details: ULK3; read-out: % Inhibition @ 100 nM
# 468 kinases [24] = target: 468 kinases (Homo sapiens, UniProt Q7L7X3); details: TAOK1; read-out: % Inhibition @ 100 nM
# 468 kinases [25] = target: 468 kinases (Homo sapiens, UniProt Q86UX6); details: YANK3; read-out: % Inhibition @ 100 nM
# 468 kinases [26] = target: 468 kinases (Homo sapiens, UniProt Q8IU85); details: CAMK1D; read-out: % Inhibition @ 100 nM
# 468 kinases [27] = target: 468 kinases (Homo sapiens, UniProt Q8TBX8); details: PIP5K2C; read-out: % Inhibition @ 100 nM
# 468 kinases [28] = target: 468 kinases (Homo sapiens, UniProt Q92918); details: HPK1; read-out: % Inhibition @ 100 nM
# 468 kinases [29] = target: 468 kinases (Homo sapiens, UniProt Q9H0K1); details: SIK2; read-out: % Inhibition @ 100 nM
# 468 kinases [30] = target: 468 kinases (Homo sapiens, UniProt Q9NYY3); details: PLK2; read-out: % Inhibition @ 100 nM
# 468 kinases [31] = target: 468 kinases (Homo sapiens, UniProt Q9P1W9); details: PIM2; read-out: % Inhibition @ 100 nM
# 468 kinases [32] = target: 468 kinases (Homo sapiens, UniProt Q9UPE1); details: SRPK3; read-out: % Inhibition @ 100 nM
# 468 kinases [33] = target: 468 kinases (Homo sapiens, UniProt Q9Y2H1); details: NDR2; read-out: % Inhibition @ 100 nM
SMILES,inhibition at 0.1 µM (468 kinases [1]),inhibition at 0.1 µM (468 kinases [2]),inhibition at 0.1 µM (468 kinases [3]),inhibition at 0.1 µM (468 kinases [4]),inhibition at 0.1 µM (468 kinases [5]),inhibition at 0.1 µM (468 kinases [6]),inhibition at 0.1 µM (468 kinases [7]),inhibition at 0.1 µM (468 kinases [8]),inhibition at 0.1 µM (468 kinases [9]),inhibition at 0.1 µM (468 kinases [10]),inhibition at 0.1 µM (468 kinases [11]),inhibition at 0.1 µM (468 kinases [12]),inhibition at 0.1 µM (468 kinases [13]),inhibition at 0.1 µM (468 kinases [14]),inhibition at 0.1 µM (468 kinases [15]),inhibition at 0.1 µM (468 kinases [16]),inhibition at 0.1 µM (468 kinases [17]),inhibition at 0.1 µM (468 kinases [18]),inhibition at 0.1 µM (468 kinases [19]; RSK1(Kin.Dom.1-N-terminal)),inhibition at 0.1 µM (468 kinases [19]; RSK1(Kin.Dom.2-C-terminal)),other results
"CCN(CC)CCNC(=O)c1c(C)[nH]c(/C=C2\C(=O)Nc3ccc(CCO)cc32)c1C [Compound No. 10, (Z)—N-(2-(Diethylamino)ethyl)-5-((5-(2-hydroxyethyl)-2-oxoindolin-3-ylidene)methyl)-2,4-dimethyl-1H-pyrrole-3-carboxamide]",2%,42%,8%,0%,19%,36%,43%,0%,2%,1%,56%,16%,86%,66%,0%,0%,68%,0%,4%,0%,inhibition at 0.1 µM (468 kinases [20]): 0%; inhibition at 0.1 µM (468 kinases [21]): 96.5%; inhibition at 0.1 µM (468 kinases [22]): 89%; inhibition at 0.1 µM (468 kinases [23]): 87%; inhibition at 0.1 µM (468 kinases [24]): 22%; inhibition at 0.1 µM (468 kinases [25]): 22%; inhibition at 0.1 µM (468 kinases [26]): 0%; inhibition at 0.1 µM (468 kinases [27]): 0%; inhibition at 0.1 µM (468 kinases [28]): 96.6%; inhibition at 0.1 µM (468 kinases [29]): 0%; inhibition at 0.1 µM (468 kinases [30]): 0%; inhibition at 0.1 µM (468 kinases [31]): 8%; inhibition at 0.1 µM (468 kinases [32]): 88%; inhibition at 0.1 µM (468 kinases [33]): 0%
"CCN(CC)CCNC(=O)c1c(C)[nH]c(/C=C2\C(=O)Nc3ccc(CCC(N)=O)cc32)c1C [Compound No. 16, (Z)-5-((5-(3-Amino-3-oxopropyl)-2-oxoindolin-3-ylidene)methyl)-N-(2-(diethylamino)ethyl)-2,4-dimethyl-1H-pyrrole-3-carboxamide]",47%,66%,19%,34%,4%,13%,17%,95%,11%,0%,41%,0%,80%,51%,19%,36%,44%,1%,20%,30%,inhibition at 0.1 µM (468 kinases [20]): 5%; inhibition at 0.1 µM (468 kinases [21]): 94%; inhibition at 0.1 µM (468 kinases [22]): 88%; inhibition at 0.1 µM (468 kinases [23]): 25%; inhibition at 0.1 µM (468 kinases [24]): 53%; inhibition at 0.1 µM (468 kinases [25]): 0%; inhibition at 0.1 µM (468 kinases [26]): 6%; inhibition at 0.1 µM (468 kinases [27]): 1%; inhibition at 0.1 µM (468 kinases [28]): 95.2%; inhibition at 0.1 µM (468 kinases [29]): 15%; inhibition at 0.1 µM (468 kinases [30]): 19%; inhibition at 0.1 µM (468 kinases [31]): 0%; inhibition at 0.1 µM (468 kinases [32]): 77%; inhibition at 0.1 µM (468 kinases [33]): 11%

# Source: patent US12435059B2, “AMP-activated protein kinase inhibitors and methods of making and using the same” (The Regents of the University of Colorado, priority 2019, dated 2025)
